biological target: T1, human IBAT (Homo sapiens, UniProt Q12908); assay: In vitro assay of IBAT-mediated uptake of [14C]-taurocholate (TC) in H14 cells; assay type: cell-based; conditions: 6 μM
T1 construct: expressed in transfected cells; host or cells: Baby hamster kidney (BHK) cells, clone H14
T1 sequence (Q12908 1-348): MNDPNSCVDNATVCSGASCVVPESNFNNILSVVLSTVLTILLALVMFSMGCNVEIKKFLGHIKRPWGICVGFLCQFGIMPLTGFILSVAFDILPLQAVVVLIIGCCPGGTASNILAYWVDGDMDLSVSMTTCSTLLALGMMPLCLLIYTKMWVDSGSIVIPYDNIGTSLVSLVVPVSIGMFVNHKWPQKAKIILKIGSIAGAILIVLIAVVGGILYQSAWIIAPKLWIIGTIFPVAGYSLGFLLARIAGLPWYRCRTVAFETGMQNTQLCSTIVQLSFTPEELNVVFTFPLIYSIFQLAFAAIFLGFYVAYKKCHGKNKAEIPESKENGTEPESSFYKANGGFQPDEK
Experimental: In Vitro Assay of Compounds that Inhibit IBAT-Mediated Uptake of [^14C]-Taurocholate (TC) in H14 Cells
Baby hamster kidney cells (BHK) transfected with the cDNA of human IBAT (H14 cells) are seeded at 60,000 cells/well in 96 well Top-Count tissue culture plates for assays run within in 24 hours of seeding, 30,000 cells/well for assays run within 48 hours, and 10,000 cells/well for assays run within 72 hours.
On the day of assay, the cell monolayer is gently washed once with 100 μl assay buffer (Dulbecco's Modified Eagle's medium with 4.5 g/L glucose+0.2% (w/v) fatty acid free bovine serum albumin-(FAF)BSA). To each well 50 μl of a two-fold concentrate of test compound in assay buffer is added along with 50 μl of 6 μM [^14C]-taurocholate in assay buffer (final concentration of 3 μM [^14C]-taurocholate). The cell culture plates are incubated 2 hours at 37° C. prior to gently washing each well twice with 100 μl 4° C. Dulbecco's phosphate-buffered saline (PBS) containing 0.2% (w/v) (FAF)BSA. The wells are then gently washed once with 100 μl 4° C. PBS without (FAF)BSA. To each 200 μl of liquid scintillation counting fluid is added, the plates are heat sealed and shaken for 30 minutes at room temperature prior to measuring the amount of radioactivity in each well on a Packard Top-Count instrument.

Row | Structure (SMILES) | inhibition at 6 µM
1 | CCCC[C@]1(CC)CS(=O)(=O)c2ccc(N)cc2[C@H](c2ccccc2)[C@@H]1O [Example 63, (3α,4α,5α) 3-Butyl-3ethyl-4-hydroxy-7-amino-5-phenyl-2,3,4,5-tetrahydrobenzothiepine-1,1-dioxide] | 90%
2 | CCCC[C@]1(CC)CS(=O)(=O)c2ccc(N)cc2[C@@H](c2ccccc2)[C@H]1O [Example 64, (3α,4β,5β) 3-Butyl-3-ethyl-4-hydroxy-7-amino-5-phenyl-2,3,4,5-tetrahydrobenzothiepine-1,1-dioxide] | 100%

same assay, conditions: 50 μM

Row | Structure (SMILES) | inhibition at 50 µM
3 | CCCCCCNc1ccc2c(c1)[C@H](c1ccccc1)[C@H](O)[C@](CC)(CCCC)CS2(=O)=O [Example 40, (3α,4α,5α) 3-Butyl-3-ethyl-7-(n-hexylamino)-4-hydroxy-5-phenyl-2,3,4,5-tetrahydrobenzothiepine-1,1-dioxide] | 49%
4 | C1=C(c2ccccc2)c2ccccc2SCC12CCCCC2 [Example 57, 5-Phenyl-2,3-dihydrospirobenzothiepine-3,1′-cyclohexane] | 51%
5 | O=S1(=O)CC2(CCCCC2)C2OC2(c2ccccc2)c2ccccc21 (stereo not drawn) [Example 58, 8b-Phenyl-1a,2,3,8b-tetrahydrospiro(benzothiepino[4,5-b]oxirene-2,1′-cyclohexane)-4,4-dioxide] | 20%

same assay, conditions: 100 uM; read-out: In vitro % Inhibition of TC Uptake @ 100 uM

Row | Structure (SMILES) | inhibition at 100 µM
6 | CCCCC1(CC)C=C(c2ccccc2)c2ccccc2SC1 (stereo not drawn) [Example 3, 3-Butyl-3-ethyl-5-phenyl-2,3-dihydrobenzothiepine] | 0%
7 | CCCC[C@]1(CC)CS(=O)(=O)c2ccccc2[C@H](c2ccccc2)[C@H]1O [Example 6b, (3α,4β,5α) 3-Butyl-3-ethyl-4-hydroxy-5-phenyl-2,3,4,5-tetrahydro-benzothiepine-1,1-dioxide] | 85%
8 | CCCC[C@]1(CC)CS(=O)(=O)c2ccccc2[C@@]2(c3ccccc3)O[C@@H]12 [Example 8a, (1aα,2β,8bα) 2-Butyl-2-ethyl-8b-phenyl-1α,2,3,8b-tetrahydro-benzothiepino[4,5-b]oxirene-4,4-dioxide] | 41%
9 | CCC1CS(=O)(=O)c2ccccc2[C@@]2(c3ccccc3)O[C@@H]12 (stereo partly drawn) [Example 13, (1aα,2α,8bα) 2-Ethyl-8b-phenyl-1a,2,3,8b-tetrahydro-benzothiepino-[4,5-b] oxirene-4,4-dioxide] | 23%
10 | CC[C@@H]1CS(=O)(=O)c2ccccc2[C@H](c2ccccc2)[C@H]1O [Example 14a, (3α,4β,5α)-3-Ethyl-4-hydroxy-5-phenyl-2,3,4,5-tetrahydro-benzothiepine-1,1-dioxide] | 13%
11 | CC[C@@H]1CS(=O)(=O)c2ccccc2[C@@H](c2ccccc2)[C@H]1O [Example 14b, (3α,4β,5β) 3-Ethyl-4-hydroxy-5-phenyl-2,3,4,5-tetrahydrobenzothiepine-1,1-dioxide] | 18%
12 | CCCCC1(CC)C=Cc2ccccc2SC1 (stereo not drawn) [Example 18, 3-Butyl-3-ethyl-2,3-dihydrobenzothiepine] | 6%
13 | CCCC[C@]1(CC)CS(=O)(=O)c2ccccc2[C@@H]2O[C@@H]21 [Example 19a, (1aα,2α,8bα) 2-Butyl-2-ethyl-1a,2,3,8b-tetrahydro-benzothiepino[4,5-b]oxirene-4,4-dioxide] | 0%
14 | CCCC[C@]1(CC)CS(=O)(=O)c2ccccc2[C@H]2O[C@H]21 [Example 19b] | 15%
15 | CCCCC1(CC)CS(=O)(=O)c2ccccc2C(Sc2ccccc2)C1O (stereo not drawn) [Example 21a, 3-Butyl-3-ethyl-4-hydroxy-5-phenylthio-2,3,4,5-tetrahydro-benzothiepine-1,1-dioxide] | 37%

same assay, conditions: H14 cells, Table 5; read-out: IC50 uM (In vitro Taurocholate Cell Uptake)

Row | Structure (SMILES) | IC50
16 | CCCC[C@]1(CC)CS(=O)(=O)c2ccccc2[C@@H](c2ccccc2)[C@@H]1O [Example 6a, (3α,4α,5β) 3-Butyl-3-ethyl-4-hydroxy-5-phenyl-2,3,4,5-tetrahydrobenzothiepine-1,1-dioxide] | 5 µM
17 | CCCC[C@]1(CC)CS(=O)(=O)c2ccccc2[C@@H](c2ccc(I)cc2)[C@H]1O [Example 42, (3α,4β,5β) 3-Butyl-3-ethyl-4-hydroxy-5-(4-iodophenyl)-2,3,4,5-tetrahydrobenzothiepine-1,1-dioxide] | 1.5 µM
18 | CCCC[C@]1(CC)CSc2ccccc2[C@H](c2ccccc2)[C@@H]1O [Example 61, (3α,4α,5α) 3-Butyl-3-ethyl-4-hydroxy-5-phenyl-2,3,4,5-tetrahydrobenzothiepine] | 30 µM
19 | CCCC[C@]1(CC)CSc2ccccc2[C@@H](c2ccccc2)[C@H]1O [Example 62, (3α,4β,5β) 3-Butyl-3-ethyl-4-hydroxy-5-phenyl-2,3,4,5-tetrahydrobenzothiepine] | 10 µM

same assay, conditions: Human TC IC50

Row | Structure (SMILES) | IC50
20 | CCCC[C@]1(CC)CS(=O)(=O)c2ccc(N(C)C)cc2[C@@H](c2ccccc2)[C@H]1O [Example 104] | 0.0056 µM
21 | CCCCC1(CC)CS(=O)(=O)c2ccc(OCCCCCCOc3ccc4c(c3)C(c3ccccc3)C(O)C(CC)(CCCC)CS4(=O)=O)cc2C(c2ccccc2)C1O (stereo not drawn) [Example 139] | > 25 µM

same assay, conditions: read-out: Human TC IC50

Row | Structure (SMILES) | IC50
22 | CCCCC1(CC)CS(=O)(=O)c2ccc(NO)cc2C(c2ccccc2)C1O (single isomer, unassigned) [Example 1314] | 0.26 µM
23 | CCCC[C@]1(CC)CS(=O)(=O)c2ccc([N+](C)(C)C)cc2[C@@H](c2ccccc2)[C@H]1O [Example 102] | 0.083 µM
24 | CCCCC1(CC)CS(=O)(=O)c2ccc(NS(C)(=O)=O)cc2C(c2ccccc2)C1O (stereo not drawn) [Example 105] | 0.6 µM
25 | CCCCC1(CC)CS(=O)(=O)c2ccc(NC(=O)CBr)cc2C(c2ccccc2)C1O (stereo not drawn) [Example 106] | 0.8 µM
26 | CCCCCC(=O)Nc1ccc2c(c1)C(c1ccccc1)C(O)C(CC)(CCCC)CS2(=O)=O (stereo not drawn) [Example 108] | 0.3 µM
27 | CCCCC1(CC)CS(=O)(=O)c2ccc(NC(C)=O)cc2C(c2ccccc2)C1O (stereo not drawn) [Example 110] | 0.09 µM
28 | CCCC[C@@]1(CC)CS(=O)(=O)c2ccc(N)cc2[C@@H](c2ccc(O)cc2)[C@H]1O [Example 111] | 2.5 µM
29 | CCCC[C@]1(CC)CS(=O)(=O)c2ccc(N)cc2[C@@H](c2ccc(OCCOCCOCCOc3ccc([C@H]4c5cc(N)ccc5S(=O)(=O)C[C@](CC)(CCCC)[C@H]4O)cc3)cc2)[C@H]1O [Example 112] | 3 µM
30 | CCCC[C@]1(CC)CS(=O)(=O)c2ccc(N)cc2[C@@H](c2ccc(O)cc2)[C@H]1O [Example 113] | 0.1 µM
31 | CCCCC1(CC)CS(=O)(=O)c2ccc(N)cc2C(c2ccc(OC)cc2)C1O (stereo not drawn) [Example 114] | 0.19 µM
32 | CCCCC1(CC)CS(=O)(=O)c2ccc(NC(=O)OCc3ccccc3)cc2C(c2ccccc2)C1O (stereo not drawn) [Example 118] | 0.4 µM
33 | CCCCCCNc1ccc2c(c1)C(c1ccccc1)C(O)C(CC)(CCCC)CS2(=O)=O (stereo not drawn) [Example 123] | 1.67 µM
34 | CCCC[C@]1(CC)CS(=O)(=O)c2cc(OCCOCCOCC[N+](C)(C)C)ccc2[C@@H](c2ccccc2)[C@H]1O [Example 125] | 18 µM
35 | CCCCC1(CC)CS(=O)(=O)c2ccc(NC(=O)OCc3ccccc3)cc2C(c2ccc(F)cc2)C1O (stereo not drawn) [Example 128] | 0.7 µM
36 | CCCC[C@]1(CC)CS(=O)(=O)c2cc(OCCOCCOCCI)ccc2[C@@H](c2ccccc2)[C@H]1O [Example 134] | 0.3 µM
37 | CCCC[C@]1(CC)CS(=O)(=O)c2cc(O)ccc2[C@@H](c2ccccc2)[C@H]1O [Example 136] | 0.09 µM
38 | CCCCC1(CC)CS(=O)(=O)c2cc(OC(C)=O)ccc2C(c2ccccc2)C1O (stereo not drawn) [Example 138] | 3 µM
39 | CCCCC1(CC)CS(=O)(=O)c2ccc(N3CCC3)cc2C(c2ccc(F)cc2)C1O (stereo not drawn) [Example 144] | 0.053 µM
40 | CCCCC1(CC)CS(=O)(=O)c2ccc(O)cc2C(c2cccc(O)c2)C1O (stereo not drawn) [Example 266] | 0.5 µM
41 | CCCCC1(CC)CS(=O)(=O)c2ccc(OC)cc2C(c2cccc(O)c2)C1O (stereo not drawn) [Example 267] | 0.073 µM
42 | CCCCC1(CC)CS(=O)(=O)c2ccc(OC)cc2C(c2ccc(F)cc2)C1O (stereo not drawn) [Example 268] | 0.029 µM
43 | CCCCC1(CC)CS(=O)(=O)c2ccc(OC)cc2C(c2ccc(F)cc2)C1O (stereo not drawn) [Example 269] | 0.08 µM
44 | CCCCC1(CC)CS(=O)(=O)c2ccc(O)cc2C(c2ccc(F)cc2)C1O (stereo not drawn) [Example 270] | 0.12 µM
45 | CCCCC1(CC)CS(=O)(=O)c2ccc(F)cc2C(c2cccc(OC)c2)C1O (stereo not drawn) [Example 276] | 0.23 µM
46 | CCCCC1(CC)CS(=O)(=O)c2ccc(OC)cc2C(c2cccc(F)c2)C1O (stereo not drawn) [Example 277] | 0.04 µM
47 | CCCCC1(CC)CS(=O)(=O)c2ccc(OC)cc2C(c2ccccc2F)C1O (stereo not drawn) [Example 280] | 0.18 µM

same assay, conditions: read-out: In vitro % Inhibition of TC Uptake @ 100 uM

Row | Structure (SMILES) | inhibition at 100 µM
48 | CCC1C=C(c2ccccc2)c2ccccc2SC1 (stereo not drawn) [Example 12, 3-Ethyl-5-phenyl-2,3-dihydrobenzothiepine] | 25%

— patent publication US6784201B2, “Benzothiepines having activity as inhibitors of ileal bile acid transport and taurocholate uptake” (G.D. Searle & Company, priority 1994, dated 2004)
